Experimental findings from patent publication US20080039437A1, “New Pyridine Analogues III” (ASTRAZENECA AB, priority 2006, published 2008) are described below.

For this experiment, the target named is T1, P2Y12 receptor (Homo sapiens, UniProt Q9H244).
T1 construct: expressed in transfected cells; host or cells: CHO cells (membranes)
Nature of the experiment: Functional inhibition of 2-Me-S-ADP induced P2Y12 signalling (35S-GTPγS, cell membranes). It is filed as biochemical. The conditions noted are these: membranes from P2Y12 transfected CHO-cells, EC80 of agonist 2-methyl-thio-adenosine diphosphate, 30° C., 45 min. On the procedure: Functional inhibition of the P2Y12 receptor can be measured by in vitro assays using cell membranes from P2Y12 transfected CHO-cells, the methodology is indicated below.
Functional inhibition of 2-Me-S-ADP induced P2Y12 signalling: 5 μg of membranes were diluted in 200 μl of 200 mM NaCl, 1 mM MgCl2, 50 mM HEPES (pH 7.4), 0.01% BSA, 30 μg/ml saponin and 10 μM GDP. To this was added an EC80 concentration of agonist (2-methyl-thio-adenosine diphosphate), the required concentration of test compound and 0.1 μCi ^35S-GTPγS. The reaction was allowed to proceed at 30° C. for 45 min. Samples were then transferred on to GF/B filters using a cell harvester and washed with wash buffer (50 mM Tris (pH 7.4), 5 mM MgCl2, 50 mM NaCl). Filters were then covered with scintillant and counted for the amount of ^35S-GTPγS retained by the filter. Maximum activity was that determined in the presence of the agonist and minimum activity in the absence of the agonist following subtraction of the value determined for non-specific activity. The effect of compounds at various concentrations was plotted according to the equation y=A+((B−A)/(1+((C/x)ˆD))) and IC50 estimated where
A is the bottom plateau of the curve i.e. the final minimum y value
B is the top of the plateau of the curve i.e. the final maximum y value
C is the x value at the middle of the curve. This represents the log EC50 value when A+B=100 […]

T1 sequence (Q9H244 whole entry): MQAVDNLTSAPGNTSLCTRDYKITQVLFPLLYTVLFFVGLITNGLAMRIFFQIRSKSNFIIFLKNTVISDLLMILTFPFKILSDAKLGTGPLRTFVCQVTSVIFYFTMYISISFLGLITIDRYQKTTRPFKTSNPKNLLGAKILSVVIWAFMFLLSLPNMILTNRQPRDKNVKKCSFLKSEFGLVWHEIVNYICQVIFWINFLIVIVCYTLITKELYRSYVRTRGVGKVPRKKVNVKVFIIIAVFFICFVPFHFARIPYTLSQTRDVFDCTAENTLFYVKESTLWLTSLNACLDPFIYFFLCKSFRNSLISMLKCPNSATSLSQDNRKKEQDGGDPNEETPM

With `CCOC(=O)c1cc(C#N)c(N2CC(C(=O)NS(=O)(=O)CC3CCC(C)CC3)C2)nc1CF` (centres unmarked) [Example 74, Ethyl 5-cyano-2-(fluoromethyl)-6-{3-[({[(4-methylcyclohexyl)methyl]sulfonyl}amino)carbonyl]azetidin-1-yl}nicotinate], the half-inhibitory concentration (IC50) came to 270 nM.
With `CCCCS(=O)(=O)NC(=O)C1CCN(c2nc(C(F)F)c(C(=O)OCC)cc2C#N)CC1` [Example 41, Ethyl 6-(4-{[(butylsulfonyl)amino]carbonyl}piperidin-1-yl)-5-cyano-2-(difluoromethyl)nicotinate], the IC50 stood at 490 nM. This IC50 lies about 1.8-fold higher than the previous one.
